Results on 6 molecules are retold here after US6908947B2, “Sulfonamide-substituted fused 7-membered ring compounds, their use as a medicament, and pharmaceutical preparations comprising them” (Aventis Pharma Deutschland GmbH, priority 1997, dated 2005).

The melting point is the temperature, or range, at which the solid turns liquid. Take `O=S(=O)(N[C@@H]1c2ccccc2CCC[C@H]1O)c1ccccc1` (relative stereo) [Example 16, trans-5-(N-Phenylsulfonylamino)-6,7,8,9-tetrahydro-5H-benzocyclohepten-6-ol]: the melting point lay in the range of 128 to 128.2 °C.

`Cc1ccc(S(=O)(=O)N[C@@H]2c3ccccc3CCC[C@H]2O)cc1` (relative stereo) [Example 17, trans-5-[N-(4-Methylphenyl)-sulfonylamino]-6,7,8,9-tetrahydro-5H-benzocyclo hepten-6-ol] displayed a melting point of 124.5 to 125.1 °C.

Regarding `COc1ccc(S(=O)(=O)N[C@@H]2c3ccccc3CCC[C@H]2O)cc1` (relative stereo) [Example 18, trans-5-[N-(4-Methoxyphenyl)-sulfonylamino]-6,7,8,9-tetrahydro-5H-benzocyclohepten-6-ol], the melting point lay within 140 to 141 °C.

With `O=S(=O)(N[C@@H]1c2ccccc2CCC[C@H]1O)c1ccc(Cl)cc1` (relative stereo) [Example 19, trans-5-[N-(4-Chlorophenyl)-sulfonylamino]-6,7,8,9-tetrahydro-5H-benzocyclohepten-6-ol], the melting point was 172 to 173 °C.

The molecule `CCc1ccc(S(=O)(=O)N[C@@H]2c3cc([N+](=O)[O-])ccc3CCC[C@H]2O)cc1` (relative stereo) [Example 20, trans-5-[N-(4-Ethylphenyl)-sulfonylamino]-3-nitro-6,7,8,9-tetrahydro-5H-benzocyclohepten-6-ol] yielded a melting point of 159 to 161 °C.

The molecule `CN(C1CCCOc2ccccc21)S(C)(=O)=O` (stereo not drawn) [Example 8, 5-(N-Methyl-N-methylsulfonylamino)-2,3,4,5-tetrahydro-1-benzoxepine] yielded a melting point of 143 to 145 °C.
